The record followed here is patent US6482609B1, “Isolated human EDG-4 receptor and polynucletide encoding said receptor” (priority 1997, dated 2002).

One assay has as its target human EDG-4 (Homo sapiens, UniProt O95136). In words: NF-κB luciferase reporter in 293-EBNA cells, human EDG-4. To be noted: human EDG-4 (pC3-hedg4#36); 3 μM; 6 hours. Format: cell-based. Here is the method:
Transient Transfection Protocol for 293-EBNA (Assay 3): The protocol described in Example 11 for Assay 1 was followed except for the following changes: […] 3) 30 μl Lipofectamine Reagent (Lipofectamine Plus Kit) was diluted in 750 μl DMEM/F12. The diluted Lipofectamine was then combined with the DNA/Plus mixture and incubated at room temperature for 15 min. […] 2) Transfected cells were harvested by trypsinization and 50,000 cells per well were plated in 96-well Blackview plates coated with poly D-lysine (Becton Dickinson Labware, Cat. 40640). No cells were plated in the outside wells of the 96-well plate. […] 1) Media was removed and cells treated with compounds diluted in DMEM/F12 media. The following treatments were used for all transfections: […] 2) The cells were treated for 6 hours. 3) Luciferase assay was performed.

The next assay deals with rat edg4 (Rattus norvegicus, UniProt P47752). In words: NF-κB-tk-p4Luc luciferase reporter in 293-EBNA cells, rat EDG-4. Details: expressed in transfected cells; host or cells: 293-EBNA. Format: cell-based. On the technique in general: Reporter assays use an easily measured gene product as a stand-in for the process of interest.
rat edg4, sequence (P47752 whole entry): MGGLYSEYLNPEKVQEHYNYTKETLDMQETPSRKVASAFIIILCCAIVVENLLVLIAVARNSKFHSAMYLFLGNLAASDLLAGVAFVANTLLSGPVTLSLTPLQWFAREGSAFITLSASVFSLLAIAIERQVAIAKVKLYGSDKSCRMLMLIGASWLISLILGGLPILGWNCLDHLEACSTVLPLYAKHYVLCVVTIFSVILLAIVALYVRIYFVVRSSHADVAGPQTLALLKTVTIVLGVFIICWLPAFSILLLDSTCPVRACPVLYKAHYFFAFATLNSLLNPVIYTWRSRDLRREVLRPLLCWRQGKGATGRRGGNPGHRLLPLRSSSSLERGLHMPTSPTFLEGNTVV
Assay [1] relates to 293-EBNA cells transfected with empty expression vector pcDNA3. In words: NF-κB luciferase reporter in 293-EBNA cells, empty vector pcDNA3. Format: cell-based. The conditions noted are these: for NF-κB reporter response in control cells: pcDNA3-transfected 293-EBNA; for NF-κB reporter induction in control cells: pcDNA3, 3 μM, 6 hours, Assay #3. On the procedure: Monolayer Transient Transfection Protocol for 293-EBNA
2) 6.6 μg NF-κB-tk-p4Luc reporter DNA and 6.6 μg of pC3-redg4 (expressing rat EDG-4), or pcDNA3 DNA was diluted in 500 μl OPTI-MEM (Gibco; Cat. 31985-062)
2) After 6 hrs, media was removed and cells treated with compounds diluted in 0.5% FBS media (140 μl added to each well).
3) Cells were treated for 24 hrs.
1) Luclite kit (Packard; Cat. 6016911) was used for luciferase assay. All reagents were brought to room temperature before use.
7) After incubation, plates were counted in a 12-detector Packard Top Count on a program without dark delay.
The above protocol for assay 1 was followed except for the following changes:
2) 3 μg NFκB-tk-p4Luc reporter DNA and 3 μg pC3-hedg1, pC3-hedg3, pC3-redg4, pC3-hedg5 or pcDNA3 DNA was diluted in 240 μl OPTI-MEM (Gibco; Cat. 31985-062)
(§1) 2) SRE Cotransfection: 0.5 μg of 2XSREtk-p4Luc-zeo reporter DNA and 3.5 μg pcDNA3, EDG-1, EDG-3 (pC3-hE3HP2, different from the clone used in Assay 2 of Example 11) or the newly cloned human EDG-4 (pC3-hedg4#36); NF-κB Cotransfection: 2 μg 6XNFκBtk-p4Luc-zeo reporter DNA and 2.0 μg pcDNA3, EDG-1, EDG-3 (pC3-hE3HP2), or EDG-4 (pC3-hedg4#36). Expression plasmid and reporter plasmid DNA samples were combined and diluted in 750 μl of DMEM/F12 (serum free media) and 20 μl Plus Reagent (Lipofectamine Plus Kit, Life Technologies Cat. 10964-013), and incubated at room temperature for 15 min.
(§2) 1) Media was removed and cells treated with compounds diluted in DMEM/F12 media.
(§3) 2) The cells were treated for 6 hours.
(§4) 293-EBNA cells were grown, lipofected in monolayer cultures, and pretreated as described above for Example 11, assay #1, except that NF-κB and AP-1 reporter-transfected cells were pretreated for 6 hr in medium containing 0.5% FBS, then treated overnight in the same medium with or without 10 μM LPA.

Assay [2] shares this test system. In words: SRE luciferase reporter in 293-EBNA cells, empty vector pcDNA3. The class given is cell-based. On the procedure:
NE-κB activates gene expression by binding to specific DNA sequences found in the promoters of genes regulated by this inflammation-related transcription factor. […] The SRE reporter was identical to the NF-κB reporter, except that the NF-κB binding sites were replaced with 2 SRE sites. The new reporter was called 2XSREtk-p4Luc-zeo.
The protocol described in Example 11 for Assay 1 was followed except for the following changes:
as §1, §2, §3
Transfection was accomplished using the Lipofectamine Plus kit (Life Technologies, Cat. 10964-013), using the manufacturer's recommended conditions.
as §4

In a further assay the test system is HeLa cells. Put plainly: IL-8 ELISA on supernatants of treated HeLa cells. The conditions noted are these: for PTX sensitivity of the IL-8 response: PTX 50 ng/ml overnight pre-treatment; for IL-8 induction: concentration series up to 10 μM, 6 hours. The class given is cell-based, human. Here is the method:
Procedure #1 For HeLa Cells
Cells: HeLa (adenocarcinoma, human)
Media: DMEM/F12+10%FBS adherent
1) Cells were seeded at 0.2×10^6 cells/well in 6-well plates.
2) 1.5 ml 0.5% FBS media was added to each well.
1) Made up all required solutions in 0.5% FBS media (control). Handling of […] for use in NF-κB experiments requires that sonication, commonly used to resuspend LPA, not be done; NF-κB may be activated by lipid peroxides created through vigorous frothing.
3) 1.5 ml appropriate treatments were added to each well.
5) After the specified time cell supernatants were collected into 1.5 ml eppendorf tubes, spun down at 14000 rpm for 5 minutes and stored at −20° C. for later ELISA determination.
D. Detection of Interleukin-8 (IL-8) using an IL-8 ELISA (Enzyme-Linked InimunoSorbent Assay).
1) The Quantikine Human IL-8 ImmunoAssay Kit was obtained from R&D Systems (Cat. D8050).
4) The assay procedure was followed as recommended in the kit for cell culture supernatant samples.
5) ELISA was performed on 50 μl samples of culture supernatant and duplicate samples were measured for each well. Each treatment was performed on triplicate wells.
6) Plates were read on UVmax kinetic microplate reader (Molecular Devices), set to 450 nm and correction set to 575 nm, using Wsoftmax software version 2.34.
Procedure #2 For HeLa Cells
1) Cells were seeded at 2.5×10^4 cells/well in 24-well plates.
2) 0.5 ml 0.5% FBS media was added to all wells not requiring PTX pre-treatment.
3) For wells requiring PTX; 0.5 ml 0.5% FBS media containing 50 ng/ml PTX (1 volume PTX (RBI Cat. P140): 1 volume DTT, incubate 37° C. for 30 minutes then dilute to 50 ng/ml) was added.
Follow Procedure #2 For HeLa Cells with the following exceptions:
Concentrations for LPC, LPE, LPG, LPS, sphingosine and SM used were 10, 50, 100, 1000, and 5000 nM. Concentrations for LPI, lyso-PAF and lysosulfatide used were 0.3 and 3 μM.
2) A 30 minute pre-treatment at 37° C./5%CO2 of 0.5 ml of suramin was done to all wells except control, any PTX and ET-18-OCH3 wells before step 3 of section C.
On the technique in general: In an ELISA, binding on a coated surface is turned into a signal by an enzyme label.

The mark [3] stands for this setting: Assay #2, S1P, SPC 3 μM, 20% FBS.

Protocol for rat edg4: 1) 150 mm plates of 293-EBNA obtained from Invitrogen (Cat. R620-07) with a confluency of ˜80% were used for transfection.
3) 96.8 μl Lipofectamine (Gibco; Cat. 18324-020) was diluted in 500 μl of OPTI-MEM.
6) 6 ml OPTI-MEM was added to each transfection tube and this was added to a plate of 293-EBNA cells. The plates were left for 4 hrs at 37° C. in a 5% CO2 incubator.
2) 0.02×10^6 cells were plated per well of a 96-well Blackview plate coated with polyD-lysine. No cells were plated in the outside wells of the 96well plate. Two 96-well plates were seeded for each transfection.
1) Cells were washed with PBS and 140 μl serum-free media (SFM) added to each well. Plates were incubated in 37° C. incubator for 6 hrs.
3) 50 μl 0.5M HEPES pH 7.8 buffer (1 mM MgCl2, 1 mM CaCl2) was added to all wells of 96-well plate. Black adhesive backing (Polyfitronics) was aligned to the bottom of the viewplate.
4) Luclite substrate was made up by adding 10 ml substrate diluent to 1 vial lyophilized substrate. Reconstituted substrate was kept under a dark container. 50 μl substrate was added to each well.
1) 0.01×10^6 cells were plated per well of a 96-well Blackview plate coated with polyD-lysine. No cells were plated in the outside wells of the 96-well plate.

Consider `CCCCCCCCCCCCC/C=C/[C@@H](O)[C@@H](N)COP(=O)(O)O` [S1P, sphingosine-1-phosphate], for which the “Induction of the NF-κB reporter gene” value at human EDG-4 came out at 4.5 fold. For the same compound, the “Increase in luciferase activity (NF-κB reporter)” value at rat edg4 (pC3-redg4, 1 μM, 24 hrs) was 2 fold; on rat edg4 (pC3-redg4, 3 μM, Assay #2), 3.5 fold; on rat edg4 (pC3-redg4, 5 μM or 10 μM, 24 hrs), 4-4.5 fold. Also, the “NF-κB reporter response in control cells” value in assay [1] (Assay #1) is on record as “No increase in luciferase activity”; in assay [1] (setting [3]) it was “No response”. In addition, the “NF-κB reporter induction in control cells” value in assay [1] was “No such induction”. For the same compound, the “SRE response in control cotransfection” value in assay [2] (3 μM, 6 hours, Assay #3) is given as “about 1.5 fold”. In addition, the “IL-8 production at 0.3 μM” value in the assay on HeLa cells (0.3 μM, 6 hr) is “near plateau values”. The IL-8 response entry in the assay on HeLa cells (1 and 10 μM, 1, 6 or 24 hours) is “time- and concentration-dependent IL-8 response”. Also, in the assay with HeLa cells, the “PTX sensitivity of the IL-8 response” value is on record as “PTX-sensitive”. The IL-8 induction entry in the assay on HeLa cells was “induce IL-8 in HeLa cells in a concentration-dependent manner”. For the same compound, the “Lowest concentration that reliably induces IL-8” value in the assay on HeLa cells (repeated experiments) is “about 30 nM”.

On to `CCCCCCCCCCCCC/C=C/[C@@H](O)[C@@H](N)COP(=O)([O-])OCC[N+](C)(C)C` [SPC, sphingosylphosphorylcholine], for which the “Induction of the NF-κB reporter gene” value at human EDG-4 is on record as 9 fold. In addition, the “Increase in luciferase activity (NF-κB reporter)” value on rat edg4 (pC3-redg4, 3 μM, Assay #2) is recorded as 4 fold. The “PTX sensitivity of NF-κB reporter response” value on rat edg4 (pC3-redg4, Assay #1) is recorded as “PTX-sensitive”. Besides, the “NF-κB reporter induction (qualitative)” value at rat edg4 (pC3-redg4, Assay #1, 24 hrs) is listed as “induced the reporter gene in EDG-4 expressing cells”. The “NF-κB reporter response in control cells” value in assay [1] (setting [3]) is reported as “No response”. Besides, the “NF-κB reporter induction in control cells” value in assay [1] was “No such induction”. Moreover, in assay [2] (3 μM SPC, 6 hr, Example 15A), the “Induction of the SRE reporter, control” value is recorded as “about 2.5 fold”. For the same compound, in the assay on HeLa cells, the “PTX sensitivity of the IL-8 response” value was “PTX-sensitive” and the IL-8 induction result was “induce IL-8 in HeLa cells in a concentration-dependent manner”.
